# In patent US20240325341A1, “ANTI-BACTERIAL EFFECT OF HALOGENATED FLUORESCEINS AGAINST COLISTIN-RESISTANT GRAM-NEGATIVE BACTERIA” (priority 2023, published 2024):
# Like-named read-outs stand apart in the source and are kept apart here.
# Legend:
# Format in all cases: cell-based
# [1] = tested on: Escherichia coli (ATCC 35218); assay: MIC by broth dilution
# [2] = tested on: Escherichia coli (ATCC 35218) colistin-resistant strain; assay: microbe, parasite or virus in culture
# [3] = tested on: Escherichia coli serotype O157 (TW07793); assay: microbe, parasite or virus in culture; settings: broth dilution, 24 h, entry 3
# [4] = tested on: Escherichia coli serotype O157 (TW07793) colistin-resistant strain; assay: microbe, parasite or virus in culture; settings: 24 h
# [5] = tested on: Acinetobacter baumannii (ATCC19606); assay: MIC by broth dilution
# [6] = tested on: Acinetobacter baumannii (ATCC19606) colistin-resistant strain; assay: microbe, parasite or virus in culture
# [7] = tested on: Acinetobacter baumannii (ATCC BAA1800); assay: MIC by broth dilution
# [8] = tested on: Acinetobacter baumannii (ATCC BAA1800) colistin-resistant strain; assay: microbe, parasite or virus in culture
# [9] = tested on: Klebsiella pneumoniae (ATCC 19606); assay: MIC by broth dilution; settings: Klebsiella pneumoniae, ATCC19606, 24 h, entry 9
# [10] = tested on: Klebsiella pneumoniae colistin-resistant strain; assay: microbe, parasite or virus in culture; settings: Klebsiella pneumoniae, ATCC19606, 24 h
# [11] = tested on: Klebsiella pneumoniae (CRE) CHS 67 (NR48569); assay: MIC by broth dilution; settings: 24 h
# [12] = tested on: Klebsiella pneumoniae (CRE) CHS 67 (NR48569) colistin-resistant strain; assay: microbe, parasite or virus in culture; settings: 24 h
# [13] = tested on: Pseudomonas aeruginosa (ATCC 27853); assay: MIC by broth dilution
# [14] = tested on: Pseudomonas aeruginosa (ATCC 27853) - intermediate colistin-resistant strain; assay: microbe, parasite or virus in culture
# [15] = tested on: Pseudomonas aeruginosa (ATCC 27853) - high colistin-resistant strain; assay: microbe, parasite or virus in culture
# [16] = tested on: Pseudomonas aeruginosa MRSN 1356 (NR51521); assay: MIC by broth dilution; settings: 24 h
# [17] = tested on: Pseudomonas aeruginosa MRSN 1356 (NR51521) colistin-resistant strain; assay: microbe, parasite or virus in culture; settings: 24 h
# [18] = tested on: Pseudomonas aeruginosa MRSN 1380 (NR51522); assay: MIC by broth dilution; settings: 24 h
# [19] = tested on: Pseudomonas aeruginosa MRSN 1380 (NR51522) colistin-resistant strain; assay: microbe, parasite or virus in culture; settings: 24 h
# [20] = tested on: Burkholderia multivorans CGD1 (wild type); assay: MIC by broth dilution; settings: 24 h
# [21] = tested on: Burkholderia multivorans CGD1 colistin-resistant strain; assay: microbe, parasite or virus in culture; settings: broth dilution, 24 h, entry 21
# [22] = tested on: Burkholderia thailandensis E264 (Wild type); assay: microbe, parasite or virus in culture; settings: 24 h
# [23] = tested on: Burkholderia thailandensis E264 colistin-resistant strain; assay: microbe, parasite or virus in culture
# [24] = tested on: Burkholderia cepacia genomovar III, LMG16656 (wild type); assay: microbe, parasite or virus in culture
# [25] = tested on: Burkholderia cepacia genomovar III, LMG16656 colistin-resistant strain; assay: microbe, parasite or virus in culture; settings: broth dilution, 24 h, entry 25
# [26] = tested on: Salmonella enterica subsp. enterica Typhimurium (BAA 2721) (Wild type); assay: MIC by broth dilution; settings: 24 h
# [27] = tested on: Salmonella enterica subsp. enterica Typhimurium (BAA 2721) intermediate colistin-resistant strain; assay: microbe, parasite or virus in culture; settings: 24 h
# [28] = tested on: Salmonella enterica Pennsylvania, Serovar Typhimurium, Isolate 1 (NR4333); assay: MIC by broth dilution; settings: 24 h
# [29] = tested on: Salmonella enterica Pennsylvania, Serovar Typhimurium, Isolate 1 (NR4333) colistin-resistant strain; assay: microbe, parasite or virus in culture; settings: 24 h
# [30] = tested on: Proteus mirabilis urine strain WGLW4 (Wild type); assay: MIC by broth dilution; settings: 24 h
# [31] = tested on: Proteus mirabilis urine strain WGLW4 colistin-resistant strain; assay: microbe, parasite or virus in culture; settings: 24 h
# [32] = tested on: Serratia sp. strain Ag2 (Wild-type); assay: MIC by broth dilution
# [33] = tested on: Serratia sp. strain Ag2 colistin-resistant strain; assay: microbe, parasite or virus in culture; settings: 24 h
# [34] = tested on: E. coli ATCC35218 colistin^R; settings: 30 min; reference molecule at 10 mg/mL
# [35] = tested on: colistin-resistant Gram-negative bacteria; settings: under a fluorescent light
# Klebsiella pneumoniae = assay: MIC by broth dilution; settings: 24 h, entry 9
# [36] = tested on: Klebsiella pneumoniae (ATCC 19606) colistin-resistant strain; assay: microbe, parasite or virus in culture; settings: broth dilution, 24 h; entry 10
# [37] = Pseudomonas aeruginosa, ATCC27853, 24 h
compound,measurement,setting,value
C[C@@H](O)[C@H]1C(=O)N2C(C(=O)O)=C(S[C@@H]3CN[C@H](C(=O)N(C)C)C3)[C@H](C)[C@H]12 [Meropenem],MIC,"[1]; Escherichia coli, ATCC35218, 24 h, entry 1, read-out: MIC",< 0.8 µg/mL
same,MIC,"[2]; Escherichia coli, ATCC35218, 24 h",25 µg/mL
same,MIC,"[3]; Escherichia coli, read-out: MIC",1.6 µg/mL
same,MIC,[4]; Escherichia coli,12.5 µg/mL
same,MIC,"[5]; Acinetobacter baumannii, ATCC19606, 24 h, entry 5, read-out: MIC",100 µg/mL
same,MIC,"[6]; Acinetobacter baumannii, ATCC19606, 24 h",> 100 µg/mL
same,MIC,"[7]; Acinetobacter baumannii, ATCCBAA1800, 24 h, entry 7, read-out: MIC",> 100 µg/mL
same,MIC,"[8]; Acinetobacter baumannii, ATCCBAA1800, 24 h",> 100 µg/mL
same,MIC,[9],> 100 µg/mL
same,MIC,[10],> 100 µg/mL
same,MIC,"[11]; Klebsiella pneumoniae, entry 11, read-out: MIC",> 100 µg/mL
same,MIC,[12]; Klebsiella pneumoniae,> 100 µg/mL
same,MIC,"[13]; Pseudomonas aeruginosa, ATCC27853, 24 h, entry 13, read-out: MIC",> 100 µg/mL
same,MIC,[14]; [37],> 100 µg/mL
same,MIC,[15]; [37],> 100 µg/mL
same,MIC,"[16]; Pseudomonas aeruginosa, entry 16, read-out: MIC",> 100 µg/mL
same,MIC,[17]; Pseudomonas aeruginosa,> 100 µg/mL
same,MIC,"[18]; Pseudomonas aeruginosa, entry 18, read-out: MIC",3.13 µg/mL
same,MIC,[19]; Pseudomonas aeruginosa,100 µg/mL
same,MIC,"[20]; Burkholderia multivorans, entry 20, read-out: MIC",25 µg/mL
same,MIC,"[21]; Burkholderia multivorans, read-out: MIC",> 100 µg/mL
same,MIC,[22]; Burkholderia thailandensis,12.5 µg/mL
same,MIC,"[23]; Burkholderia thailandensis, 24 h",> 100 µg/mL
same,MIC,"[24]; Burkholderia cepacia, LMG16656, 24 h",25 µg/mL
same,MIC,"[25]; Burkholderia cepacia, LMG16656, read-out: MIC",100 µg/mL
same,MIC,"[26]; Salmonella enterica, entry 26, read-out: MIC",3.1 µg/mL
same,MIC,[27]; Salmonella enterica,6.25 µg/mL
same,MIC,"[28]; Salmonella enterica, entry 28, read-out: MIC",1.6 µg/mL
same,MIC,[29]; Salmonella enterica,> 100 µg/mL
same,MIC,"[30]; Proteus mirabilis, entry 30, read-out: MIC",> 200 µg/mL
same,MIC,[31]; Proteus mirabilis,> 200 µg/mL
same,MIC,"[32]; Serratia, 24 h, entry 32, read-out: MIC",0.039 µg/mL
same,MIC,"[32]; Table 1, 24 h",4000 µg/mL
same,MIC,[33]; Serratia,12.5 µg/mL
same,reduction of strain (CFU),[34],0%
"O=C1OC2(c3cc(I)c(O)c(I)c3Oc3c2cc(I)c(O)c3I)c2c(Cl)c(Cl)c(Cl)c(Cl)c21 [RB, 4,5,6,7-tetrachloro-2′,4′,5′,7′-tetraiodo-fluorescein]",bactericidal activity,[35],0.05 to 6.25 µg/mL
Amikacin,MIC,"[1]; 24 h, entry 1",3.1 µg/mL
same,MIC,"[2]; broth dilution, 24 h, entry 2",>100 µg/mL
same,MIC,[3],1.6 µg/mL
same,MIC,"[4]; broth dilution, entry 4",25.0 µg/mL
same,MIC,"[5]; 24 h, entry 5",16.0 µg/mL
same,MIC,"[6]; broth dilution, 24 h, entry 6",>100 µg/mL
same,MIC,"[7]; 24 h, entry 7",64.0 µg/mL
same,MIC,"[8]; broth dilution, 24 h, entry 8",>100 µg/mL
same,MIC,Klebsiella pneumoniae,4.0 µg/mL
same,MIC,[36],64.0 µg/mL
same,MIC,[11]; entry 11,16.0 µg/mL
same,MIC,"[12]; broth dilution, entry 12",>100 µg/mL
same,MIC,"[13]; 24 h, entry 13",32.0 µg/mL
same,MIC,"[14]; broth dilution, 24 h, entry 14",>100 µg/mL
same,MIC,"[15]; broth dilution, 24 h, entry 15",>200 µg/mL
same,MIC,[16]; entry 16,32.0 µg/mL
same,MIC,"[17]; broth dilution, entry 17",>100 µg/mL
same,MIC,[18]; entry 18,64.0 µg/mL
same,MIC,"[19]; broth dilution, entry 19",>100 µg/mL
same,MIC,[20]; entry 20,200.0 µg/mL
same,MIC,[21],>200.0 µg/mL
same,MIC,"[22]; broth dilution, entry 22",64.0 µg/mL
same,MIC,[23],>200 µg/mL
same,MIC,"[24]; broth dilution, 24 h, entry 24",>100 µg/mL
same,MIC,[25],>200 µg/mL
same,MIC,[26]; entry 26,1.6 µg/mL
same,MIC,"[27]; broth dilution, entry 27",>100 µg/mL
same,MIC,[28]; entry 28,1.6 µg/mL
same,MIC,"[29]; broth dilution, entry 29",>100 µg/mL
same,MIC,[30]; entry 30,>200 µg/mL
same,MIC,"[31]; broth dilution, entry 31",>200 µg/mL
same,MIC,"[32]; 24 h, entry 32",>200 µg/mL
same,MIC,"[33]; broth dilution, entry 33",>200 µg/mL
same,reduction of strain (CFU),[34],about 3.5%
